Where two headings read alike, the source gives them in different places.
Experiments:
[1] = Area per molecule at the interface; format: physicochemical; conditions: 60° C., estimated by linear extrapolation
Description: The area per molecule of a surfactant at the water/air interface provides information on the degree of packing and the orientation of the adsorbed surfactant molecule. While not wishing to be bound by theory, it is believed that surfactants that have small area per molecule values tend to pack more closely at the interface than those with large area per molecule values. From the surface excess concentration at surface saturation (Γmax), the area per molecule (am) of C8 /C10 oxypropyl D-gluconamide was determined and is given by:
am =1×10^16 /Nav Γmax
Γmax =-1/2·303RT(∂γ/∂log[Conc])T
NAV =6.0221×10^23 per gram mole (Avogadro's Number)
The area per molecule (am) of several surfactants were-determined and are set forth below: […]

[2] = cited from earlier work
[3] = cited from earlier work; remark: listed apart in the source
[4] = Effectiveness of adsorption at the interface (surface excess concentration at surface saturation); format: physicochemical; conditions: 60° C., estimated by linear extrapolation
Description: The surface excess concentration at surface saturation (Γmax) is defined as a measure of the effectiveness of surfactant adsorption at the water/air interface and represents the maximum value to which adsorption can be obtained. Effectiveness of adsorption is related to the interfacial area occupied by the surfactant molecule. The smaller the effective cross-sectional area of a surfactant at the interface, the greater its effectiveness of adsorption. The effectiveness of adsorption is an important factor in determining surfactant properties such as detergency, foaming, wetting or emulsification. While not wishing to be bound by theory, it is believed that surfactants that absorb effectively at the interface tend have tightly packed coherent interfacial films and often provide better surfactant benefits than those with loosely packed noncoherent films. The effectiveness of adsorption of C8 /C10 oxypropyl D-gluconarnide was determined using the Gibbs equation given as:
Γmax =-1/2.303RT(∂γ/∂log[Conc])T
(∂γ/∂log[Conc)T =-24.574971 ergs/cm^2 (which is equivalent to the
slope of a plot of γ versus log[Conc]) R=8.3 14×10^7 ergs/mol K (Gas Constant)
The surface excess concentration at surface saturation (Γmax) of various surfactants were determined and are set forth below: […]

[5] = Effectiveness in reducing surface tension (surface pressure at the CMC); format: physicochemical; conditions: 60° C., estimated by linear extrapolation
Description: Effectiveness of a surfactant in reducing surface tension is defined as the maximum reduction in surface tension that can be obtained regardless of the bulk phase surfactant concentration.
As mentioned before, surface tension reduction depends on the replacement of water molecules at the interface by surfactant molecules, therefore the effectiveness of a surfactant in reducing interfacial surface tension should reflect the saturated concentration of surfactant at the interface relative to that in bulk liquid phase. During this process the surface tension of water steadily decreases as bulk phase surfactant concentration increases. This will continue until the concentration reaches the critical micelle concentration (CMC), above which the surface tension remains nearly unchanged and the interface is saturated with surfactant. The surface tension at the CMC is therefore very close to the minimum interfacial tension or maximum surface pressure that the system can achieve. The surface pressure at this point, cmc, is a suitable measure of the effectiveness of a surfactant in reducing surface tension and is given as:
cmc =20+2.3 nRT(Γmax) log[CMC/C20 ]
n=1 which represents the number of ions whose surface concentration changes with the change in liquid phase surfactant concentration.
R=8.314×107 ergs/mol K (Gas Constant)
Γmax =-1/2·303RT(∂γ/∂log [Conc])T=3.85×10^-10 mole/cm^2
CMC/C20 =is the ratio of the critical micelle concentration to the bulk phase surfactant concentration necessary to reduce the surface tension of water by 20 dyn/cm.
The effectiveness of various surfactants in reducing surface tension ( cmc) were determined and are set forth below: […]

[6] = cited from earlier work; remark: listed apart in the source
[7] = Water solubility; format: physicochemical; conditions: in words
[8] = Krafft point of aqueous dispersion of aldonamide; format: physicochemical; conditions: for Krafft Point (0.1%): 0.1% in water by weight; for Krafft Point (1.0%): 1.0% in water by weight
Protocol: The temperature at and above which surfactants begin to form micelles instead of precipitates is referred to as the Krafft point (Tk) and at this temperature the solubility of a surfactant becomes equal to its CMC (numerical value at which micelles are formed).
The Krafft point was measured by preparing 650 ml of a 0.1% or 1.0% dispersion of aldonamide in water by weight. If the surfactant was soluble at room temperature, the solution was slowly cooled to 0° C. […] (less than zero). If it precipitated out of solution, the temperature at which precipitation occurs was taken as the Krafft point.
If the surfactant was insoluble at :room temperature, the dispersion was slowly heated until the solution became homogeneous. It was then slowly cooled until precipitation occurred. The temperature at which the surfactant precipitates out of solution upon cooling was taken as the Krafft point.

[9] = Ross-Miles foam height; format: physicochemical; parameters: key: X: low water solubility, foam height cannot be measured; conditions: Example 84; for Foam Height Final (symbol): after 10 minutes
Protocol: (§1) Since most of the foaming data on surfactants is typically obtained by the Ross-Miles Foam Height Assay (Ross, J. and Miles, G. D. Am Soc. for Testing Material Method D1173-63 Philadelphia, Pa. (1953); Oil & Soap (1958) 62:1260) the foaming ability of these surfactants were acquired using this method.
(§2) In the Ross-Miles method, 200 mL of a surfactant solution contained in a pipette of specified dimensions with a 2.9-mm-i.d. orifice is allowed to fall 90 cm onto 50 mL of the same solution contained in a cylindrical vessel maintained at a given temperature by means of a water jacket. The height of the foam produced in the cylindrical vessel is read immediately after all the solution has run out of the pipette and then again after a given amount of time.
(§3) Using this method, the foam production (initial foam height in mm) and foam stability (final foam height after 10 minutes in mm) were measured at 0.1% aldonamide concentration, 40° C. and 0 ppm (parts per million) hardness. Aldonamides that were not soluble at 40° C. were measured at about 5°-10° C. above their Krafft points.

[10] = Ross-Miles foam height; format: physicochemical; conditions: 0.1% aldonamide, 40° C. (or about 5°-10° C. above Krafft point if not soluble), 0 ppm hardness
Protocol: as §1, §2, §3

Compound: CCCCCCCCCCCCOCCOCCOCCOCCOCCO [Dodecylpenta(oxyethylene) Ether]
- area per molecule (am) [1]: 52.3 Å^2
- area per molecule (am) ([2]; 25° C.): 50.1 Å^2
- area per molecule (am) ([2]; 40° C.): 50.6 Å^2
- surface excess concentration at surface saturation (Γmax) ([3]; 25° C.): 3.31 × 10^-10 mole/cm^2
- surface excess concentration at surface saturation (Γmax) ([3]; 40° C.): 3.28 × 10^-10 mole/cm^2
- surface excess concentration at surface saturation (Γmax) [4]: 3.16 × 10^-10 mole/cm^2
- surface pressure at the CMC (cmc) [5]: 40.7 dyn/cm
- surface pressure at the CMC (cmc) ([6]; 25° C.): 41.5 dyn/cm
- surface pressure at the CMC (cmc) ([6]; 40° C.): 41.2 dyn/cm

Compound: CCCCCCCCCCCCOCCOCCOCCO [Dodecyltri(oxyethylene) Ether]
- area per molecule (am) [1]: 45.4 Å^2
- area per molecule (am) ([2]; 25° C.): 41.7 Å^2
- area per molecule (am) ([2]; 40° C.): 42.5 Å^2
- surface excess concentration at surface saturation (Γmax) ([3]; 25° C.): 3.98 × 10^-10 mole/cm^2
- surface excess concentration at surface saturation (Γmax) ([3]; 40° C.): 3.90 × 10^-10 mole/cm^2
- surface excess concentration at surface saturation (Γmax) [4]: 3.83 × 10^-10 mole/cm^2
- surface pressure at the CMC (cmc) [5]: 41.4 dyn/cm
- surface pressure at the CMC (cmc) ([6]; 25° C.): 44.1 dyn/cm
- surface pressure at the CMC (cmc) ([6]; 40° C.): 43.1 dyn/cm

Compound: CCCCCCCCCCCCNC(=O)[C@H](O)[C@@H](O)[C@@H](O)[C@H](O)CO [J, C12 D-Galactonamide]
- water solubility [7]: Insoluble
- Krafft Point (0.1%) [8]: > 100 °C

Compound: CCCCCCCCCCCCNC(=O)[C@H](O)[C@H](O)[C@@H](O)[C@@H](O)[C@H](O)CO [GG, C12 D-Glycero-L-Mannoheptonamide]
- water solubility [7]: Insoluble
- Krafft Point (0.1%) [8]: > 100 °C

Compound: CCCCCCCCCCCCOCCOCCOCCOCCO [Dodecyltetra(oxyethylene) Ether]
- area per molecule (am) [1]: 53.3 Å^2
- area per molecule (am) ([2]; 25° C.): 45.7 Å^2
- area per molecule (am) ([2]; 40° C.): 48.7 Å^2
- surface excess concentration at surface saturation (Γmax) ([3]; 25° C.): 3.63 × 10^-10 mole/cm^2
- surface excess concentration at surface saturation (Γmax) ([3]; 40° C.): 3.41 × 10^-10 mole/cm^2
- surface excess concentration at surface saturation (Γmax) [4]: 3.01 × 10^-10 mole/cm^2
- surface pressure at the CMC (cmc) [5]: 40.7 dyn/cm
- surface pressure at the CMC (cmc) ([6]; 25° C.): 43.4 dyn/cm
- surface pressure at the CMC (cmc) ([6]; 40° C.): 42.0 dyn/cm

Compound: CCCCCCCCCCCCCCCCCCNC(=O)[C@H](O)[C@@H](O)[C@H](O[C@@H]1O[C@H](CO)[C@H](O)[C@H](O)[C@H]1O)[C@H](O)CO [UU, C18 D-Lactobionamide]
- Foam Height Final (symbol) [9]: X
- Foam Height Initial (symbol) [9]: X
- Krafft Point (1.0%) [8]: 82 °C

Compound: CCCCCCCCCCCCNC(=O)[C@H](O)[C@H](O)[C@@H](O)[C@@H](O)CO [L, C12 L-Mannonamide]
- water solubility [7]: Insoluble
- Krafft Point (0.1%) [8]: > 100 °C

Compound: Iso C10 Oxypropyl D-Glucoheptonamide [JJ]
- Foam Height Final ([10]; after 10 minutes): 204 mm
- Foam Height Initial ([10]; initial): 215 mm
- Krafft Point (0.1%) [8]: 18 °C

Compound: CCCCCCCCCCCCOCCOCCOCCOCCOCCOCCOCCO [Dodecylhepta(oxyethylene) Ether]
- area per molecule (am) [1]: 61.0 Å^2
- area per molecule (am) ([2]; 25° C.): 57.3 Å^2
- area per molecule (am) ([2]; 40° C.): 59.9 Å^2
- surface excess concentration at surface saturation (Γmax) ([3]; 25° C.): 2.90 × 10^-10 mole/cm^2
- surface excess concentration at surface saturation (Γmax) ([3]; 40° C.): 2.77 × 10^-10 mole/cm^2
- surface excess concentration at surface saturation (Γmax) [4]: 2.71 × 10^-10 mole/cm^2
- surface pressure at the CMC (cmc) [5]: 36.8 dyn/cm
- surface pressure at the CMC (cmc) ([6]; 25° C.): 38.3 dyn/cm
- surface pressure at the CMC (cmc) ([6]; 40° C.): 38.5 dyn/cm

Compound: CCCCCCCCCCCCCCCNC(=O)[C@H](O)[C@@H](O)[C@H](O[C@@H]1O[C@H](CO)[C@H](O)[C@H](O)[C@H]1O)[C@H](O)CO [SS, C15 D-Lactobionamide]
- Foam Height Final (symbol) [9]: X
- Foam Height Initial (symbol) [9]: X
- Krafft Point (1.0%) [8]: 84 °C

Compound: CCCCCCCCCCCCNC(=O)[C@@H](O)[C@H](O)[C@H](O)[C@@H](O)CO [K, C12 L-Galactonamide]
- water solubility [7]: Insoluble
- Krafft Point (0.1%) [8]: > 100 °C

Compound: CCCCCCCCCCCCOCCOCCOCCOCCOCCOCCOCCOCCO [Dodecylocta(oxyethylene) Ether]
- area per molecule (am) [1]: 69.0 Å^2
- area per molecule (am) ([2]; 25° C.): 66.0 Å^2
- area per molecule (am) ([2]; 40° C.): 67.4 Å^2
- surface excess concentration at surface saturation (Γmax) ([3]; 25° C.): 2.52 × 10^-10 mole/cm^2
- surface excess concentration at surface saturation (Γmax) ([3]; 40° C.): 2.46 × 10^-10 mole/cm^2
- surface excess concentration at surface saturation (Γmax) [4]: 2.40 × 10^-10 mole/cm^2
- surface pressure at the CMC (cmc) [5]: 36.3 dyn/cm
- surface pressure at the CMC (cmc) ([6]; 25° C.): 37.2 dyn/cm
- surface pressure at the CMC (cmc) ([6]; 40° C.): 37.3 dyn/cm
